Measured values: patent US20070243144A1, “External Preparation” (TOYO SHINYAKU CO., LTD, priority 2004, published 2007)

Test system: HFSKF-II cells (human skin fibroblast)
Assay: Ability to suppress the generation of active oxygen caused by ultraviolet radiation
Type: cell-based
Details: 100 μg/mL in medium with 0.03 wt % hydrogen peroxide; UV A 365 nm 4.4 J/cm^2; DCFH-DA fluorescence; six wells
Method: HFSKF-II cells (human skin fibroblast; obtained from RIKEN) were seeded in a 96-well plate at a concentration of 2×10^5 cells/well, and using 0.1 mL of standard medium (Ham's F-12 medium containing 15% of fetal calf serum; manufactured by Sigma-Aldrich), these were incubated for 24 hours at 37° C. in a 5% CO2 atmosphere. Next, the plate was washed three times with PBS by the method of Hong Wang et al. (Free Radic. Biol. Med., 1999). Then the medium was replaced with a standard medium containing 100 μM of DCFH-DA (2′,7′-dichlorofluorescein diacetate; manufactured by Sigma-Aldrich) and this was incubated for 10 minutes at 37° C. in a 5% CO2 atmosphere. Next, the plate was washed three times with PBS. […] UV A is a UV radiation that readily passes through skin, and is known to promote skin aging.
Next, the fluorescence F of the DCFH-DA that is emitted due to the presence of active oxygen was measured with a multispectrometer (Varioscan; excitation wavelength: 485±10 nm, detection wavelength: 530±10 nm; Thermo Electron Corporation), and the suppression rate of the active oxygen generation due to UV radiation when the pueraria flower extract was employed was calculated from the following formula. […] Fsample: The fluorescence measured after the medium was replaced with a standard medium that contains pueraria flower extract and UV A was irradiated. […]

SMILES: COC1=C(OC)C(=O)C(C/C=C(\C)CC/C=C(\C)CC/C=C(\C)CC/C=C(\C)CC/C=C(\C)CC/C=C(\C)CC/C=C(\C)CC/C=C(\C)CC/C=C(\C)CCC=C(C)C)=C(C)C1=O [Coenzyme Q10, coenzyme Q10]
- Suppression rate of the active oxygen generation (%): 30.6 ± 7.7%
